| Compound | melting point [°C] |
| --- | --- |
| OCC1(c2ccc(Cl)cc2)CC1 | 50 to 54 |
| CC(C)(C(N)=O)n1nc2ccccc2n1 | 174 |
| O=c1[nH]cc(Cl)cc1[N+](=O)[O-] | 234 to 236 |
| O=C(O)CCc1cccc(Br)c1 | 76 to 78 |
| N#Cc1cc(Br)ccc1F | 79 |
| COc1cc(N)c(C(=O)O)cc1OC | 155 to 160 |
| CC(C)CC1CCCCC1 | -95 |
| S=C=Nc1ccccc1Br | 20 |
| CC12CCCC1C1CCC3CCCCC3(C)C1CC2 (centres undefined) | 50.2 |
| CCCC1C2=C(OC(=O)C1(C)C)c1ccc(OC)cc1CC2 (centres undefined) | 129 |
| N#Cc1ccc(N2CCCNCC2)nc1 | 63 to 65 |
| Oc1cc(Br)ccc1Cl | 57 |
| O=C1N(c2ccccc2)N(c2ccccc2/N=N\c2ccccc2)C1(c1ccccc1)c1ccccc1 | 163 |
| O=C(O)c1ccc(O)nn1 | 246 to 247 |
| O=Cc1cc(F)c(F)c(F)c1 | 25.3 |
| O=C1NN(c2ccccc2)C(=O)C1=C1SC=C(c2ccccc2)S1 | 288 to 290 |
| CC(C)(C)OC(=O)N1CCN(Cc2cccc(C=O)c2)CC1 | 67 to 68 |
| CC1COC(=O)O1 (centres undefined) | -48.8 |
| Cc1cc(C(F)(F)F)n2nc(-c3ccccc3)cc2n1 | 174 |
| O=C(O)c1cccc2c1OCO2 | 224 to 225 |
| NC(=O)C1CCN(c2nccc(C(F)(F)F)n2)CC1 | 194 to 196 |
| C=C(C)C(=O)OCCOC(=O)c1cc([N+](=O)[O-])cc([N+](=O)[O-])c1 | 71 |
| Cc1cnc(C(=O)O)c[n+]1[O-] | 178 |

| Compound | melting point [°C] |
| --- | --- |
| O=c1n(CCO)c(=O)n(CCO)c(=O)n1CCO | 138 |
| S=c1ssc(S)c1-c1ccccc1 | 153 to 155 |
| CN1CSC(=S)N(C)C1 | 106 |
| O=C(O)C=C1OC(=O)c2ccccc21 | 287 to 290 |
| CCN1CCCC1CNC(=O)c1cc(S(N)(=O)=O)ccc1OC (centres undefined) | 178 |
| COc1cc2nc(N3CCN(C(=O)c4ccco4)CC3)nc(N)c2cc1OC | 285 |
| O=C(O)CCC(=O)CCC(=O)O | 142 to 144 |
| Oc1c(Cl)cc(Cl)cc1Sc1cc(Cl)cc(Cl)c1O | 188 |
| O=C(O)CCCCCCCCCCCC(=O)O | 112 to 114 |
| COC1=C(C(C)C)C(=O)C2=C(C1=O)C1(C)CCCC(C)(C)C1CC2O (centres undefined) | 138 |
| O=C(O)c1cc(Oc2ccc(C(F)(F)F)cc2Cl)ccc1[N+](=O)[O-] | 155 |
| CCCCCCCCCCCCc1ccccc1S(=O)(=O)O | 10 |
| O=C(O)CSC=Cc1ccccc1 | 81 to 84 |
| O=C(O)CCn1c(=O)oc2ccccc21 | 126 to 128 |
| O=c1c(Cl)c(Cl)cnn1Cc1ccccc1F | 110 to 112 |
| CCCCCCCCCCNCCCCCCCCCC | 40 |
| O=C(O)C=Cc1ccccc1F | 179 |
| CC(C)(C)c1cc(CC#N)cc(C(C)(C)C)c1O | 111 |
| COc1ccc([N+](=O)[O-])c(Cl)n1 | 78 to 80 |
| BrCc1ccccc1Br | 31 |
| N#CC(N)C(N)=O (centres undefined) | 120 to 124 |
| O=[N+]([O-])c1cccc(CS(=O)(=O)Cl)c1 | 99 |
| CC(C)(C(=O)O)n1nnc2ccccc21 | 182 |

| Compound | melting point [°C] |
| --- | --- |
| O=C(O)C(F)(F)C(F)(F)C(F)(F)C(F)(F)C(=O)O | 134 |
| OCCCCCCCCCCCCBr | 34 |
| Cc1cn(C2CC(F)C(CO)O2)c(=O)[nH]c1=O (centres undefined) | 177 |
| CC(=NO)c1ccc(Cl)cc1Cl | 148 to 151 |
| COc1ccc(CC#N)cc1F | 48 |
| O=C(O)c1ccccc1OC1CCOCC1 | 53 to 54 |
| Cc1cc([N+](=O)[O-])cc(Br)c1N | 177 to 183 |
| O=C(CO)[C@@H](O)[C@H](O)[C@@H](O)CO | 165 |
| N#Cc1cccc(Cl)c1 | 41 |
| O=C(O)c1ccc2[nH]cnc2c1 | 300 |
| NNc1c(Cl)cc(Cl)cc1Cl | 142 |
| CCCCCCCCCCCCCCCCCCOP1OCC2(CO1)COP(OCCCCCCCCCCCCCCCCCC)OC2 (centres undefined) | 41.5 |
| CCCCCCCC(=O)OCCCC | -42.9 |
| CCNc1nc(Cl)nc(N(CC)CC)n1 | 102 |
| NCCCOCCCN | 151 |
| CCCCCCn1c(=O)c2c(ncn2C)n(C)c1=O | 82 |
| Cc1cc(C(F)(F)F)n2nc(N)c(/N=N/c3ccccc3[N+](=O)[O-])c2n1 | 235 |
| COc1cc(C(=O)O)c([N+](=O)[O-])cc1OC | 195 to 197 |
| OC1CCCC1C1CCCC1 (centres undefined) | 20 |
| FC(F)(F)C1(F)C(F)(F)C(F)(F)C(F)(F)C(F)(F)C1(F)C(F)(F)F (centres undefined) | -56 |
| CCCCNC(=O)C(C(F)(F)F)C(F)(F)F | 94 |
| COc1cc(OC)cc(C(N)=O)c1 | 144 |
| S=C=Nc1ccc2c(c1)OCCO2 | 64 to 66 |

Next, values leading:

| melting point [°C] | Compound |
| --- | --- |
| 206 | CCOC(=O)NC(=S)Nc1sc2c(c1C(=O)OCC)CCN(Cc1ccccc1)C2 |
| 157 | Nc1nc(-c2cccc3ccccc23)cs1 |
| 41 to 42 | Brc1ccccc1COc1ccccc1 |
| 153 | O=C(O)Cc1cc(O)ccc1O |
| 85 to 86 | Cc1nn(-c2ccccc2)c(C)c1C#N |
| 134 to 137 | CC(C)(C)OC(=O)NCCCC[C@H](NC(=O)OCC1c2ccccc2-c2ccccc21)C(=O)O |
| 46 | CCCCCCOc1ccc(O)cc1 |
| 97 | CC(=O)O[C@@H](C(=O)O)c1ccccc1 |
| 149 | NNC(=O)c1ccc(N)c(N)c1 |
| 144 | Nc1ccc(Sc2ccc([N+](=O)[O-])cc2)cc1 |
| 214 | O=C(Nc1ccc(Cl)cc1)Nc1ccc(Cl)c(C(F)(F)F)c1 |
| 49 | COc1ccc(O)c(C(C)=O)c1 |
| 74 | O=C(O)CCCCc1ccc(F)cc1 |
| 111 to 112 | O=Cc1cc2ccccc2n1S(=O)(=O)c1ccccc1 |
| 202 to 203 | CSc1ccc(-n2c(-c3ccccc3)cc(C(=O)O)c2C)cc1 |
| 97 | COc1ccc(C(=O)c2cccc(Br)c2)cc1OC |
| 114 | O=[N+]([O-])c1ccc(-c2ccccc2)cc1 |
| 56 to 60 | Cc1nc(-c2cccc(Br)c2)cs1 |
| 225 to 228 | CN(C)c1ccc(C=CC(=O)O)cc1 |
| 151 | COc1ccc(CNC(=O)c2cc([N+](=O)[O-])cc([N+](=O)[O-])c2)cc1 |

| melting point [°C] | Compound |
| --- | --- |
| 125 | CCOC(=O)c1ccc2cn[nH]c2c1 |
| 193 to 195 | O=C(O)C(O)C(O)C(=O)Nc1ccc(Cl)cc1 (single isomer, unassigned; (+)) |
| 158 to 160 | CC1=C(C(=O)OCc2ccccc2)C(c2ccc3c(c2)OCO3)NC(=O)N1 (centres undefined) |
| 134 | CN(C)c1ccc(N=C2C=CC(=O)C=C2)cc1 |
| 39 | CC(COc1ccccc1)N(CCCl)Cc1ccccc1 (centres undefined) |
| 238 | O=C(O)c1cc2ccccc2cc1C(=O)O |
| 184 | CN(C)c1ccc(C=Cc2ccc3ccccc3n2)cc1 |
| 164 to 167 | CSc1nc2cc(NCc3ccccc3)ccc2[nH]1 |
| 260 to 262 | Cc1nc2ccccc2n1CC(=O)O |
| 300 | O=C1C(=C2Nc3ccccc3C2=O)Nc2ccccc21 |
| 156 to 157 | COC(=O)c1sc(-c2ccc(C(C)(C)C)cc2)cc1N |
| 58 | O=[N+]([O-])c1ccc(Oc2ccccc2)cc1 |
| 28 | CC(=O)c1ccc(C)cc1 |
| 270 | c1ccc2c(c1)ccc1ccc3ccc4ccc5cccnc5c4c3c12 |
| 116 | N#C/C(=C/c1ccccc1)c1ccc(Cl)cc1 |
| 88 | COC(=O)c1cc(Br)c(C)c(Br)c1 |
| 132 to 134 | CC(/C=C(\C)c1ccc(-c2ccccc2)cc1)=NNS(=O)(=O)c1ccc(C)cc1 |
| 58 | CC1C(c2ccccc2)=Cc2ccccc21 (centres undefined) |
| 155 to 158 | OCc1cccc2cccc(CO)c12 |
| 32 | COC(=O)C1=Cc2ccccc2C1C (centres undefined) |

| melting point [°C] | Compound |
| --- | --- |
| 116 | CCCCC(C(=O)O)C(=O)N(Nc1ccccc1)c1ccccc1 (centres undefined) |
| 190 to 193 | CCCCCc1ccc(-c2nnc(S)[nH]2)cc1 |
| 154 | CC(C)(C)NCC(O)c1ccc(O)c(CO)c1 (centres undefined) |
| 105 | Cc1ccc(NC(=O)CC(C)c2ccc(C)cc2)cc1 (centres undefined) |
| 104 | Cc1[nH]nc(-c2ccccc2)c1C |
| 125 | O=C(/C(=N\Nc1cccc(O)c1)S(=O)(=O)c1ccccc1)c1ccc(Cl)cc1 |
| 95.3 | CC(C)C(O)(c1ccc(OC(F)(F)F)cc1)c1cncnc1 (centres undefined) |
| 177 | c1ccc2c(-c3nnc(-c4cccc5ccccc45)o3)cccc2c1 |
| 185 | CCCCNC(=O)C(c1cc2ccccc2c2ccccc12)N(Cc1ccco1)C(=O)Cc1ccccc1 (centres undefined) |
| 82.2 to 83.5 | CC(C)(C)OC(=O)C(C(=O)Cc1ccccc1)c1ccccc1 (centres undefined) |
| 64 | COC(=O)C=Cc1ccc(O)c(OC)c1 |
| 171 to 172 | NNC(=S)Nc1ccc(F)cc1 |
| 217 | NCC(O)c1ccc(O)c(O)c1 (centres undefined) |
| 119 | Cc1cc(C=O)ccc1O |
| 156 | Cc1ccncc1C=NNc1ccc([N+](=O)[O-])cc1[N+](=O)[O-] |
| 360 | O=[N+]([O-])c1ccc2c(O)c(-c3ccc(-c4[nH]c5cc([N+](=O)[O-])ccc5c4O)cc3)[nH]c2c1 |
| 98 to 100 | CCCc1ccc(NC(C)=O)cc1 |
| 198 to 201 | Cc1ccc(C=CC(=O)O)cc1 |
| 135 | C[Si](C)(O)c1ccc([Si](C)(C)O)cc1 |
| 125 to 126 | CC(C)(C)OC(=O)N1Cc2ccccc2C[C@H]1C(=O)O |
